From US20060281724A1, “Methods for Treating Shock” (priority 2005, published 2006)

What was measured:
[1] = test system: rats subjected to 40% loss of total blood volume; assay: Rat model of volume hemorrhagic trauma (blood loss model); type: in vivo
Experimental: Twenty-four rats were subjected to 40% loss of total blood volume, consisting of catheterization and laparotomy (soft tissue injury) to mimic trauma and hemorrhage. One hour after onset of hemorrhage, the animals were resuscitated with crystalloid fluid and packed red blood cells (PRBCs). Twelve animals received one subcutaneous injection of AET in a methyl cellulose suspension at a concentration of 40 mg/kg body weight in 100 μl/kg body weight, one hour after initiation of hemorrhage, but prior to fluid resuscitation. Twelve animals received subcutaneous methyl cellulose control injection at 100 μl/kg body weight.

[2] = test system: rats hemorrhaged down to a mean arterial pressure of about 35-40 mmHg; assay: Rat model of blood pressure hemorrhagic trauma (pressure reduction model); type: in vivo; details: two days after induction of hemorrhage; AET 40 mg/kg subcutaneous in methyl cellulose suspension, one hour after initiation of hemorrhage, prior to fluid resuscitation; untreated/control group 75%
Experimental: In a second model of hemorrhagic trauma, 15 rats were hemorrhaged as in Example 1 down to a mean arterial pressure of about 35-40 mmHg and resuscitated one hour from onset of hemorrhage with crystalloid and PRBCs. Seven […] subcutaneous injection of AET in a methyl cellulose suspension at a concentration of 40 mg/kg body weight in 100 μl/kg body weight, one hour after initiation of hemorrhage, but prior to fluid resuscitation. Eight animals received subcutaneous methyl cellulose control injection at 100 μl/kg body weight. Two days after induction of hemorrhage, mortality in the untreated group (n=8) was 75%.

C[C@]12CCC(O)CC1=CC(O)[C@@H]1[C@@H]2CC[C@]2(C)C(O)CC[C@@H]12 (stereo partly drawn) [AET, trihydroxy-androst-5ene]
mortality ([1]; three days after hemorrhagic conditions that reduced total blood volume by 40%, FIG. 1): zero | survival rate ([1]; three days after induction of hemorrhage, AET 40 mg/kg subcutaneous in methyl cellulose suspension, one hour after initiation of hemorrhage, prior to fluid resuscitation, untreated group mortality 25%, P<0.04): 100% | mortality rate [2]: 43%
